Columns and labels:
Format in all cases: cell-based
[1] = biological target: T1, PLK1 (Homo sapiens, UniProt P53350); experiment: Luciferase assay for PLK1 in HeLa LgBit (PLK1-HiBit KI) cell line; conditions: released after thymidine block, compound 300 nM, luminescence after 9 hours
T1 construct: endogenous in cells; host or cells: HeLa LgBit (PLK1-HiBit KI): HeLa cells stably expressing LgBit, with CRISPR/Cas9 knock-in of HiBit at the endogenous PLK1 locus
Protocol: A HeLa cell line in which the LgBit vector was transfected and expressed stably was prepared. Then, after constructing gRNA and donor to express the HiBit amino acid sequence behind the C-terminal of the PLK1 gene, which was inherent in the cell, it was inserted into the cell together with a vector capable of expressing CRISPR/Cas9. Only the cells in which the insertion was completed and knock-in had progressed were selected, sub-cultured and used.
The compounds of Examples were completely dissolved in DMSO (Sigma-Aldrich Cat. No. D2438, Lot. No. RNBL5438) and used in the experiment.
In the case of HeLa LgBit (Plk1-HiBit KI), the compounds were treated after being released after thymidine block, and the process was as follows. Thymidine (Sigma-Aldrich Cat. No. T9250-5G) was completely dissolved in ddH2O and used in the experiment. For thymidine block, the products were treated with 2 mM of thymidine and then incubated for 24 hours. For release and chemical treatment, the medium was suctioned and washed with 1×PBS. TrypLE™ was added and incubated in 37° C. CO2 incubator (Thermo Fisher Science, Cat. No. 4111) for 5 mins. Cells neutralized by adding complete media were counted through a counter. For each well of a 96-well culture plate (SPL), 3.3×10^4 cells and a total medium volume of 150 μl were seeded and incubated in a CO2 incubator.
Each cell line was incubated in a CO2 incubator for 18 hours, and Endurazine (Promega, Cat. No. N257B) was added to each well to make up 4% of the total volume. After adding compounds of Examples in a 96-well white plate (SPL) to a concentration of 300 nM, the wavelength of the plate reader (BMG Labtech, CLARIOstar Plus) was set to 470-480 nM, and then the luminescence was tracked in real time.

[2] = test system: NCI-H69 (H69) cell line; experiment: Cell viability assay for NCI-H69 cell line; conditions: Homo sapiens, NCI-H69, 120 h, 5 days, EZ-Cytox, 0.46-3000 nM
From the text: (§1) The NCI-H69 (hereafter H69) and NCI-H526 (hereafter H526) cell lines were purchased from Korea Cell Line Bank (KCLB, Seoul, Korea). For cell culture, RPMI 1640 (Gibco, Cat. No. 22400-089; Lot. No. 2537146), FBS (Gibco, Cat. No. 16000-044; Lot. No. 2511328P), Penicillin/Streptomycin (PS) (Gibco, Cat. No. 15140-122; Lot. No. 2441887), 75T cell culture flask (SPL, Cat. No. 71075), 175T cell culture flask (SPL, Cat. No. 71175), 96-well cell culture plate (SPL, Cat. No. 30096), PBS pH 7.4 (Gibco, Cat. No. 10010-023; Lot. No. 2509235), TrypLE™ Express (Gibco, Cat. No. 12605-010; Lot. No. 2323417), Cell Counter (Hematocytometer)(As one, Cat. No. 4-458-01), and 0.4% Trypan Blue Solution (DYNEBIO, Cat. No. CBT3710; Lot. No. 20221111) were used.
(§2) The compounds of Examples were completely dissolved in DMSO (Sigma-Aldrich Cat. No. D2438, Lot. No. RNBL7287) and used in the experiment. 3×10^4 cells were seeded for each well of a 96-well plate (SPL), and the cells were cultured in total volume of 150 μl. Each compound was diluted 3-folds from the highest concentration of 3000 nM to the lowest concentration of 0.46 nM. After treating the compound to each well to make the total volume of 200 μl, it was cultured in a CO2 incubator (Thermo Fisher Science, Cat. No. 4111) for 5 days. Then, after treating EZ-Cytox (DOGEN, Cat.NO. EZ-3000, Lot. No. DLS2308) 20 μl in each well, it was cultured in CO2 incubator for 4 hours. The absorbance of the completely cultured sample was measured by setting the wavelength of a plate reader (BMG Labtech, CLARIOstar Plus) to […], and was measured after shaking for 3 minutes in a plate reader before measurement.
(§3) (A: IC50 is less than 20 nM, B: IC50 is 50 nM or less, C: IC50 is 100 nM or less)

[3] = test system: NCI-H526 (H526) cell line; experiment: Cell viability assay for NCI-H526 cell line; conditions: Homo sapiens, NCI-H526, 120 h, 5 days, EZ-Cytox, 0.46-3000 nM
From the text: as §1, §2, §3

T1 sequence (P53350 whole entry): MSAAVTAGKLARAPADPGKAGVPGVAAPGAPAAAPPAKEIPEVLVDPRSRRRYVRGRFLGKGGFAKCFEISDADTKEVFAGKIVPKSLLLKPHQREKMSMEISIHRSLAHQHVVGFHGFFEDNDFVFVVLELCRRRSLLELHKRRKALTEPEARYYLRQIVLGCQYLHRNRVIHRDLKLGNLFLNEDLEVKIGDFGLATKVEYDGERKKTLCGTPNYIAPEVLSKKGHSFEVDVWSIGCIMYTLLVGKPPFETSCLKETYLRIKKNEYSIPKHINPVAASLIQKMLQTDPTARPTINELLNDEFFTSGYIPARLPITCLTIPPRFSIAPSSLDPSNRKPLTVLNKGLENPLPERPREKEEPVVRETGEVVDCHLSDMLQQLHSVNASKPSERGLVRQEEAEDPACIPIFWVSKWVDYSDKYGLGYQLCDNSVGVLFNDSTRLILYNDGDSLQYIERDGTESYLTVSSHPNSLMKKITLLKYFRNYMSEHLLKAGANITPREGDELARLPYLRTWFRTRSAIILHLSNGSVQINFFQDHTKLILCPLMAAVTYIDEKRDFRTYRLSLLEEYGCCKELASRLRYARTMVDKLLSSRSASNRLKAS

| Value (luminescence value, PLK1-HiBit) [1] | SMILES | IC50 [2] | IC50 [3] |
| --- | --- | --- | --- |
| 0.377 | CC[C@@H]1C(=O)N(C)c2cnc(Nc3ccc(C(=O)NC4CCN(C(=O)C(N)CN5CCN(c6cccc7c6C(=O)N(C6CCC(=O)NC6=O)C7=O)CC5)CC4)cc3OC)nc2N1C1CCCC1 (stereo partly drawn) [Compound 9, N-(1-(2-amino-3-(4-(2-(2,6-dioxopiperidin-3-yl)-1,3-dioxoisoindolin-4-yl)piperazin-1-yl)propanoyl)piperidin-4-yl)-4-(((R)-8-cyclopentyl-7-ethyl-5-methyl-6-oxo-5,6,7,8-tetrahydropteridin-2-yl)amino)-3-methoxybenzamide] | ≤ 100 nM | < 20 nM |
| 0.132 | CC[C@@H]1C(=O)N(C)c2cnc(Nc3ccc(C(=O)NN4CCC(C(N)CN5CCN(c6ccc(C7CCC(=O)NC7=O)cc6F)CC5)CC4)cc3OC)nc2N1C1CCCC1 (stereo partly drawn) [Compound 19, N-(4-(1-amino-2-(4-(4-(2,6-dioxopiperidin-3-yl)-2-fluorophenyl)piperazin-1-yl)ethyl)piperidin-1-yl)-4-(((R)-8-cyclopentyl-7-ethyl-5-methyl-6-oxo-5,6,7,8-tetrahydropteridin-2-yl)amino)-3-methoxybenzamide] | ≤ 50 nM | ≤ 50 nM |
| 0.295 | COc1cc(C(=O)NCC2CCN(CC3CCN(c4ccc(C5CCC(=O)NC5=O)cc4)CC3)CC2)ccc1Nc1ncc2c(n1)N(C1CCCC1)CC(F)(F)C(=O)N2C (stereo not drawn) [Compound 27, 4-((9-cyclopentyl-7,7-difluoro-5-methyl-6-oxo-6,7,8,9-tetrahydro-5H-pyrimido[4,5-b][1,4]diazepin-2-yl)amino)-N-((1-((1-(4-(2,6-dioxopiperidin-3-yl)phenyl)piperidin-4-yl)methyl)piperidin-4-yl)methyl)-3-methoxybenzamide] | ≤ 50 nM | ≤ 50 nM |
| 0.144 | CC[C@@H]1C(=O)N(C)c2cnc(Nc3ccc(C(=O)NN4CCC(N5CCC(CNc6ccc(C7CCC(=O)NC7=O)cc6)CC5)CC4)cc3OC)nc2N1C1CCCC1 (stereo partly drawn) [Compound 21, 4-(((R)-8-cyclopentyl-7-ethyl-5-methyl-6-oxo-5,6,7,8-tetrahydropteridin-2-yl)amino)-N-(4-(((4-(2,6-dioxopiperidin-3-yl)phenyl)amino)methyl)-[1,4′-bipiperidin]-1′-yl)-3-methoxybenzamide] | < 20 nM | < 20 nM |
| 0.154 | CC[C@@H]1C(=O)N(C)c2cnc(Nc3ccc(C(=O)NC4CCC(N5CCN(CCc6ccc(C7CCC(=O)NC7=O)cc6)CC5)CC4)cc3OC)nc2N1C1CCCC1 (stereo partly drawn) [Compound 20, 4-(((R)-8-cyclopentyl-7-ethyl-5-methyl-6-oxo-5,6,7,8-tetrahydropteridin-2-yl)amino)-N-((1r,4R)-4-(4-(4-(2,6-dioxopiperidin-3-yl)phenethyl)piperazin-1-yl)cyclohexyl)-3-methoxybenzamide] | < 20 nM | < 20 nM |
| 0.139 | CC[C@@H]1C(=O)N(C)c2cnc(Nc3ccc(C(=O)NC4CCC(N5CCN(CCNc6ccc(C7CCC(=O)NC7=O)cc6)CC5)CC4)cc3OC)nc2N1C1CCCC1 (stereo partly drawn) [Compound 1, 4-(((R)-8-cyclopentyl-7-ethyl-5-methyl-6-oxo-5,6,7,8-tetrahydropteridin-2-yl)amino)-N-((1r,4R)-4-(4-(2-((4-(2,6-dioxopiperidin-3-yl)phenyl)amino)ethyl)piperazin-1-yl)cyclohexyl)-3-methoxybenzamide] | < 20 nM | < 20 nM |
| 0.372 | CC[C@@H]1C(=O)N(C)c2cnc(Nc3ccc(C(=O)NC4CCC(N5CCC(NCc6cccc7c6CN(C6CCC(=O)NC6=O)C7=O)CC5)CC4)cc3OC)nc2N1C1CCCC1 (stereo partly drawn) [Compound 12, 4-(((R)-8-cyclopentyl-7-ethyl-5-methyl-6-oxo-5,6,7,8-tetrahydropteridin-2-yl)amino)-N-((1r,4R)-4-(4-(((2-(2,6-dioxopiperidin-3-yl)-1-oxoisoindolin-4-yl)methyl)amino)piperidin-1-yl)cyclohexyl)-3-methoxybenzamide] | ≤ 100 nM | ≤ 50 nM |
| 0.144 | CC[C@@H]1C(=O)N(C)c2cnc(Nc3ccc(C(=O)N[C@H]4CC[C@H](NCC5CCN(c6ccc(C7CCC(=O)NC7=O)nc6)CC5)CC4)cc3OC)nc2N1C1CCCC1 (stereo partly drawn) [Compound 25, 4-(((R)-8-cyclopentyl-7-ethyl-5-methyl-6-oxo-5,6,7,8-tetrahydropteridin-2-yl)amino)-N-((1r,4R)-4-(((1-(6-(2,6-dioxopiperidin-3-yl)pyridin-3-yl)piperidin-4-yl)methyl)amino)cyclohexyl)-3-methoxybenzamide] | < 20 nM | < 20 nM |
| 0.279 | CC[C@@H]1C(=O)N(C)c2cnc(Nc3ccc(C(=O)NC4CCC(N5CCC(NCc6ccc(C7CCC(=O)NC7=O)cc6)CC5)CC4)cc3OC)nc2N1C1CCCC1 (stereo partly drawn) [Compound 8, 4-(((R)-8-cyclopentyl-7-ethyl-5-methyl-6-oxo-5,6,7,8-tetrahydropteridin-2-yl)amino)-N-((1r,4R)-4-(4-((4-(2,6-dioxopiperidin-3-yl)benzyl)amino)piperidin-1-yl)cyclohexyl)-3-methoxybenzamide] | < 20 nM | < 20 nM |
| 0.145 | CC[C@@H]1C(=O)N(C)c2cnc(Nc3ccc(C(=O)NC4CCN(C5CCN(CCc6ccc(C7CCC(=O)NC7=O)cc6)CC5)CC4)cc3OC)nc2N1C1CCCC1 (stereo partly drawn) [Compound 22, 4-(((R)-8-cyclopentyl-7-ethyl-5-methyl-6-oxo-5,6,7,8-tetrahydropteridin-2-yl)amino)-N-(1′-(4-(2,6-dioxopiperidin-3-yl)phenethyl)-[1,4′-bipiperidin]-4-yl)-3-methoxy benzamide] | ≤ 50 nM | < 20 nM |
| 0.111 | CC[C@@H]1C(=O)N(C)c2cnc(Nc3ccc(C(=O)NC4CCC(NCC5CCN(c6ccc(C7CCC(=O)NC7=O)cc6F)CC5)CC4)cc3OC)nc2N1C1CCCC1 (stereo partly drawn) [Compound 18, 4-(((R)-8-cyclopentyl-7-ethyl-5-methyl-6-oxo-5,6,7,8-tetrahydropteridin-2-yl)amino)-N-((1r,4R)-4-(((1-(4-(2,6-dioxopiperidin-3-yl)-2-fluorophenyl)piperidin-4-yl)methyl)amino)cyclohexyl)-3-methoxybenzamide] | < 20 nM | < 20 nM |
| 0.186 | CC[C@@H]1C(=O)N(C)c2cnc(Nc3ccc(C(=O)NN4CCC(C5CCN(CCc6ccc(C7CCC(=O)NC7=O)cc6)CC5)CC4)cc3OC)nc2N1C1CCCC1 (stereo partly drawn) [Compound 23, 4-(((R)-8-cyclopentyl-7-ethyl-5-methyl-6-oxo-5,6,7,8-tetrahydropteridin-2-yl)amino)-N-(1′-(4-(2,6-dioxopiperidin-3-yl)phenethyl)-[4,4′-bipiperidin]-1-yl)-3-methoxy benzamide] | < 20 nM | < 20 nM |
